Results published in ChEMBL document CHEMBL1909046, “DrugMatrix in vitro pharmacology data”.

What was measured:
[1] = target: Beta-1 adrenergic receptor (Homo sapiens, UniProt P08588); experiment: DRUGMATRIX: Adrenergic beta1 radioligand binding (ligand: [125I] Cyanopindolol); type: cell membranes, CHO-K1, Membrane; conditions: cho-k1; Not Active = under 50% inhibition at 10 µM
[2] = target: T1, Calcitonin receptor (Homo sapiens, UniProt P30988); type: cell membranes, Membrane; conditions: t47d; note: in other assays of this panel Not Active means under 50% inhibition at 10 µM
T1 sequence (P30988 whole entry): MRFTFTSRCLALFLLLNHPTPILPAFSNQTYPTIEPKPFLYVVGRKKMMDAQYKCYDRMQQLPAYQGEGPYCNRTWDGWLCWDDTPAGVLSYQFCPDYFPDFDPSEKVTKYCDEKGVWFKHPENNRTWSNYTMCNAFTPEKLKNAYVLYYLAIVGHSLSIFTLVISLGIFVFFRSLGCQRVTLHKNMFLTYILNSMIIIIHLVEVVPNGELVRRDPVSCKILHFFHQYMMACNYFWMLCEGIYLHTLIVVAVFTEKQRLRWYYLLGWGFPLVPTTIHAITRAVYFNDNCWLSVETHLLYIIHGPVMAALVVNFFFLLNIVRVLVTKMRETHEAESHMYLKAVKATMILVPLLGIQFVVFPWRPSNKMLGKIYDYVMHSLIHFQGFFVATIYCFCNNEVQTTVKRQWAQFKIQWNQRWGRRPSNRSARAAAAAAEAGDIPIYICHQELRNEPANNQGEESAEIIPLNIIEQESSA

[3] = target: T2, Endothelin-1 receptor (Homo sapiens, UniProt P25101); type: cell membranes, Membrane; conditions: cho-k1; note: in other assays of this panel Not Active means under 50% inhibition at 10 µM
T2 sequence (P25101 whole entry): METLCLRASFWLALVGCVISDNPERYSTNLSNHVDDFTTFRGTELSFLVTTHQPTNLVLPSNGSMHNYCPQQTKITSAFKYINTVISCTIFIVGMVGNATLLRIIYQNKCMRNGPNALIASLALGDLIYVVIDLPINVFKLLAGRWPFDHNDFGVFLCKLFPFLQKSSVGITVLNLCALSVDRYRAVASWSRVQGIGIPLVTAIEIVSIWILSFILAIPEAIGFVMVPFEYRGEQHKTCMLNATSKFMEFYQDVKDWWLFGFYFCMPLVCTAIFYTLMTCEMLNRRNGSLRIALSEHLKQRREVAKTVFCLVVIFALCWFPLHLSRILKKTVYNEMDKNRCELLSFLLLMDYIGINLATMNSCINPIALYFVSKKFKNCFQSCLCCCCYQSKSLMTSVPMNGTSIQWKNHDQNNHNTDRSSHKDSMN

[4] = target: T3, Muscarinic acetylcholine receptor M4 (Homo sapiens, UniProt P08173); type: cell membranes, CHO-K1, Membrane; note: in other assays of this panel Not Active means under 50% inhibition at 10 µM
T3 sequence (P08173 whole entry): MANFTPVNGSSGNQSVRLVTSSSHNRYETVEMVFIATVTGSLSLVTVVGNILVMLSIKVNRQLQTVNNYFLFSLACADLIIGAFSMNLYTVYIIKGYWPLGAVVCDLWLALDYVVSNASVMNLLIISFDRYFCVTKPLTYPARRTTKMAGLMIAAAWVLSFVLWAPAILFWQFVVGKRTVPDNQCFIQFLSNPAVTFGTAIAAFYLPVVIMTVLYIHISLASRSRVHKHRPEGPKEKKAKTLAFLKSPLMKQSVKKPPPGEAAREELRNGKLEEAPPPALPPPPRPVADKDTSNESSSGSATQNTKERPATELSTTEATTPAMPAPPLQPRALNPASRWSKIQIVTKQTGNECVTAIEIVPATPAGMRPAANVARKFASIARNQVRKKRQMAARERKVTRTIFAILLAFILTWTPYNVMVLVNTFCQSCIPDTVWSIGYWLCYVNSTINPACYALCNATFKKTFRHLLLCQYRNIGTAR

[5] = target: T4, Cathepsin G (Homo sapiens, UniProt P08311); type: tissue-based; conditions: neutrophil;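 note: inhibition of Cathepsin G enzyme activity, tested on an AMC-conjugated peptide substrate; in other assays of this panel Not Active means under 50% inhibition at 10 µM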
T4 sequence (P08311 whole entry): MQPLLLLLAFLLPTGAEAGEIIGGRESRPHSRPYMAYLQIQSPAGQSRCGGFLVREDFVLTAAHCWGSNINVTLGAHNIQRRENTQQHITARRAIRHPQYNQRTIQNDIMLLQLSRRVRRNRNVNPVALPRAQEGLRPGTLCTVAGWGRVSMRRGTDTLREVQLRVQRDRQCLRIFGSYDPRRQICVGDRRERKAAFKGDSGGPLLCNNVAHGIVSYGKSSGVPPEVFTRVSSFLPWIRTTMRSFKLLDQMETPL

[6] = target: Acetylcholinesterase (Homo sapiens, UniProt P22303); experiment: DRUGMATRIX: Acetylcholinesterase enzyme inhibition (substrate: acetylthiocholine); type: cell-based, HEK293; conditions: hek293; Not Active = under 50% inhibition at 10 µM
[7] = target: T5, Adenosine receptor A1 (Homo sapiens, UniProt P30542); type: cell membranes, CHO, Membrane; conditions: cho
T5 sequence (P30542 whole entry): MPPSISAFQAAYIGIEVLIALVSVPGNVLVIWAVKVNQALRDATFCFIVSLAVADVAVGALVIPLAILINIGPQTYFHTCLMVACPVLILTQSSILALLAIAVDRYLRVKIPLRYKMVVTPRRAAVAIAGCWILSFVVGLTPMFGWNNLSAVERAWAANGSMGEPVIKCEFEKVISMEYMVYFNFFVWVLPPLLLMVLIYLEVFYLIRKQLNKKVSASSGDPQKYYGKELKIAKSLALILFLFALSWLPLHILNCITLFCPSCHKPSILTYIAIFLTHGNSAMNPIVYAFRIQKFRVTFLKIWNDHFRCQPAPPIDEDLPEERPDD

Sequence of Beta-1 adrenergic receptor (P08588 whole entry): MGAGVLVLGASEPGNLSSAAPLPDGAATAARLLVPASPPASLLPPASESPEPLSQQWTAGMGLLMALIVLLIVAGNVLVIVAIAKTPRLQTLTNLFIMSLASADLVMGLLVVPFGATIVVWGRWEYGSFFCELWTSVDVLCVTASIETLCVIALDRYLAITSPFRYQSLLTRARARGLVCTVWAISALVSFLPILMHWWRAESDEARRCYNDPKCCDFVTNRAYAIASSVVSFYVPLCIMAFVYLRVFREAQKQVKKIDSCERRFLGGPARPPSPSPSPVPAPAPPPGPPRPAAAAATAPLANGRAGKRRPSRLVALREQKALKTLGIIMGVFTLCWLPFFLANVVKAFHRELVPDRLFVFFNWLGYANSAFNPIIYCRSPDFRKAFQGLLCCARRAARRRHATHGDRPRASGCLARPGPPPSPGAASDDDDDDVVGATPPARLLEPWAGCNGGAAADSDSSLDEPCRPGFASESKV
Sequence of Acetylcholinesterase (P22303 whole entry): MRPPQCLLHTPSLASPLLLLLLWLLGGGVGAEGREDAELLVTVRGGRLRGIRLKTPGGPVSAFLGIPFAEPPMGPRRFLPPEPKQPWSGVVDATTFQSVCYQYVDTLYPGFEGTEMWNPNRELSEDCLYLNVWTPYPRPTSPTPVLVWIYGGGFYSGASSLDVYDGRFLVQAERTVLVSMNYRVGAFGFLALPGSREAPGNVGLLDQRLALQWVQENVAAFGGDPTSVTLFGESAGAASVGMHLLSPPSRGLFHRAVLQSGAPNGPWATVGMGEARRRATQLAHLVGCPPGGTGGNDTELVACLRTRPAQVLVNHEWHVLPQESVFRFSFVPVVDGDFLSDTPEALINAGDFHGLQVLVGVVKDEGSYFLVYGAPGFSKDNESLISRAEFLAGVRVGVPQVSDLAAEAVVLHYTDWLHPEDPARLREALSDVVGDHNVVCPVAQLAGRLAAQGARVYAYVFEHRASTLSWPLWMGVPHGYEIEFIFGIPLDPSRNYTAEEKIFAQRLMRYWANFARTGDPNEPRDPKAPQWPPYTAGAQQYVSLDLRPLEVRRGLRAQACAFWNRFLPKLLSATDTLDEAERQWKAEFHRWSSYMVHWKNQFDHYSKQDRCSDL

Row | Compound | IC50 [1] | IC50 [2] | IC50 [3] | IC50 ([4]; cho-k1) | IC50 [5] | IC50 [6] | IC50 [7] | IC50 ([4]; read-out: IC50) | Ki ([4]; read-out: Ki)
1 | CCN(CC)CCNC(=O)c1ccc(N)cc1 [PROCAINAMIDE] | Not Active | Not Active | Not Active | Not Active | Not Active | Not Active | Not Active |  | 
2 | Cc1cccc(C)c1NC(=O)C1CCCCN1C (configuration not stated) [MEPIVACAINE] | Not Active | Not Active | Not Active | Not Active | Not Active | Not Active | Not Active |  | 
3 | O=c1[nH]c(=O)n([C@H]2C[C@H](O)[C@@H](CO)O2)cc1F [FLOXURIDINE] | Not Active | Not Active | Not Active | Not Active | Not Active | Not Active | Not Active |  | 
4 | Cc1cc(O)cc(C)c1Cl [CHLOROXYLENOL] | Not Active | Not Active | Not Active | Not Active | Not Active | Not Active | Not Active |  | 
5 | O=C(O)CCCc1cccs1 | Not Active | Not Active | Not Active | Not Active | Not Active | Not Active | Not Active |  | 
6 | CCCNC(=O)NS(=O)(=O)c1ccc(Cl)cc1 [CHLORPROPAMIDE] | Not Active | Not Active | Not Active | Not Active | Not Active | Not Active | Not Active |  | 
7 | CC(=O)OC[C@H]1O[C@@H](n2ncc(=O)[nH]c2=O)[C@H](OC(C)=O)[C@@H]1OC(C)=O [AZARIBINE] | Not Active | Not Active | Not Active | Not Active | Not Active | Not Active | Not Active |  | 
8 | NCCCNCCSP(=O)(O)O [AMIFOSTINE] | Not Active | Not Active | Not Active | Not Active | Not Active | Not Active | Not Active |  | 
9 | CC(C)(C)NCC(O)COc1cccc2c1CC(O)C(O)C2 (configuration not stated) [NADOLOL] | Not Active | Not Active | Not Active | Not Active | Not Active | Not Active | Not Active |  | 
10 | C[C@H]1COc2c(N3CCN(C)CC3)c(F)cc3c(=O)c(C(=O)O)cn1c23.C[C@H]1COc2c(N3CCN(C)CC3)c(F)cc3c(=O)c(C(=O)O)cn1c23.O [LEVOFLOXACIN] | Not Active | Not Active | Not Active | Not Active | Not Active | Not Active | Not Active |  | 
11 | COc1ccnc(C[S+]([O-])c2nc3ccc(OC(F)F)cc3[nH]2)c1OC (configuration not stated) [PANTOPRAZOLE] | Not Active | Not Active | Not Active | Not Active | Not Active | Not Active | Not Active |  | 
12 | CCCCC1=NC2(CCCC2)C(=O)N1Cc1ccc(-c2ccccc2-c2nnn[nH]2)cc1 [IRBESARTAN] | Not Active | Not Active | Not Active | Not Active | Not Active | Not Active | Not Active |  | 
13 | COC(=O)Nc1nc2cc(C(=O)c3ccc(F)cc3)ccc2[nH]1 [FLUBENDAZOLE] | Not Active | Not Active | Not Active | Not Active | Not Active | Not Active | Not Active |  | 
14 | CN(C)CCC=C1c2ccccc2CCc2ccccc21 [AMITRIPTYLINE] | Not Active | Not Active | Not Active |  | Not Active | Not Active | Not Active | 5.3 nM | 0.739 nM
15 | Cc1ccc(C)c(OCCCC(C)(C)C(=O)O)c1 [GEMFIBROZIL] | Not Active | Not Active | Not Active | Not Active | Not Active | Not Active | Not Active |  | 
16 | C[N+](C)(C)C[C@H](O)CC(=O)[O-] [LEVOCARNITINE] | Not Active | Not Active | Not Active | Not Active | Not Active | Not Active | Not Active |  | 
17 | CNC1=Nc2ccc(Cl)cc2C(c2ccccc2)=[N+]([O-])C1 [CHLORDIAZEPOXIDE] | Not Active | Not Active | Not Active | Not Active | Not Active | Not Active | Not Active |  | 
18 | CC(O)COC[C@H]1O[C@@H]2O[C@H]3[C@H](O)[C@@H](O)[C@@H](O[C@H]4[C@H](O)[C@@H](O)[C@@H](O[C@H]5[C@H](O)[C@@H](O)[C@@H](O[C@H]6[C@H](O)[C@@H](O)[C@@H](O[C@H]7[C@H](O)[C@@H](O)[C@@H](O[C@H]8[C@H](O)[C@@H](O)[C@@H](O[C@H]1[C@H](O)[C@H]2O)O[C@@H]8COCC(C)O)O[C@@H]7COCC(C)O)O[C@@H]6COCC(C)O)O[C@@H]5COCC(C)O)O[C@@H]4COCC(C)O)O[C@@H]3COCC(C)O (stereo partly drawn) [2-HYDROXYPROPYL-BETA-CYCLODEXTRIN] | Not Active | Not Active | Not Active | Not Active | Not Active | Not Active | Not Active |  | 
19 | C[C@]12CC[C@@H]3c4ccc(O)cc4CC[C@H]3[C@@H]1C[C@@H](O)[C@@H]2O [ESTRIOL] | Not Active | Not Active | Not Active | Not Active | Not Active | Not Active | Not Active |  | 
20 | O=C(O)P(=O)(O)O [FOSCARNET] | Not Active | Not Active | Not Active | Not Active | Not Active | Not Active | Not Active |  | 
21 | CC1=NN(c2ccccc2)C(=O)C1 [EDARAVONE] | Not Active | Not Active | Not Active | Not Active | Not Active | Not Active | Not Active |  | 
22 | CCCNC(C)C(=O)Nc1ccccc1C (configuration not stated) [PRILOCAINE] | Not Active | Not Active | Not Active | Not Active | Not Active | Not Active | Not Active |  | 
23 | C[C@@H]1C/C=C/C=C/C=C/C=C/[C@H](O[C@@H]2O[C@H](C)[C@@H](O)[C@H](N)[C@@H]2O)C[C@@H]2O[C@](O)(C[C@@H](O)C[C@H]3O[C@@H]3/C=C/C(=O)O1)C[C@H](O)[C@H]2C(=O)O [NATAMYCIN] | Not Active | Not Active | Not Active | Not Active | Not Active | Not Active | Not Active |  | 
